Laboratory results as given in US20090012052A1, “METHOD FOR TREATING ER+ BREAST CANCER” (Ore Pharmaceuticals Inc., priority 2006, published 2009).
“Also recorded” adds a separate entry of the source.

Legend:
ER = details: T47D (ER+, PR+) cells; cited from earlier work
PR = details: T47D (ER+, PR+) cells; cited from earlier work
T47D cells [1] = details: cited from earlier work
[2] = tested on: T47D (human ER+ breast cancer cell line) xenografts; test: Growth of ER+ breast cancer cell line (T47D) xenografts in mice; type: in vivo; details: NODscid mice with estrogen pellet; p.o. once daily 3-5 weeks; candesartan cilexetil 10/30/100, irbesartan 30/100/300, tamoxifen 0.1/0.3/1.0 mg/kg
Protocol: Female NODscid mice of age 5-6 weeks received a subcutaneous estrogen pellet implant (1.7 mg). Twenty four hours after estrogen pellet implantation, the mice received tumor implantation by subcutaneous injection of T47D cells to the flank (approximately 2.5×10^6 cells/mouse). The mice were ear-notched for identification and housed 4 animals per cage. The tumor implantation site was palpated up to 3 times weekly to monitor tumor growth. One hundred animals in which tumor implantation was successful (7-12 days after injection) were randomized to ten treatment groups, 10 animals per group:
Tumors were measured 3 times weekly using digital calipers. Body weight was measured twice weekly. Clinical observations were conducted weekly. At the conclusion of the study or when mice attained a maximum tumor burden of about 3.0 cm^3 or about 10% of body weight, the mice were sacrificed, tumors were harvested and a terminal blood sample was collected.

T47D cells [3] = test: Cell proliferation assay (RT-CES impedance), ER+ cell line T47D; type: cell-based, human; details: for Effect on Ang II-induced growth / Effect on Ang II-induced cell proliferation: T47D
Protocol: (§1) Unless otherwise indicated, cell proliferation assays described in Examples 2-5 were performed using a Real-Time Cell Electronic Sensing (RT-CES™ 96×) instrument from ACEA Bioscience (San Diego, Calif.). This instrument utilizes an electronic readout (impedance) to non-invasively quantify adherent cell proliferation and viability in real time.
(§2) Cells were seeded in 96-well microtiter plates containing microelectronic sensor arrays (96E plates; ACEA). Cells were maintained in RPMI 1640 (Invitrogen, Carlsbad, Calif.) supplemented with 10% fetal bovine serum (FBS) (Hyclone, Logan, Utah) and were cultured at 37° C. in a humidified atmosphere containing 5% CO2. For proliferation assays, cells were seeded (20,000 cells/well), allowed to attach and grown overnight in standard growth medium. Cells were then serum-starved for 8 hours prior to the proliferation assay in presence or absence of test compound(s). The proliferation response was continuously monitored by measuring the impedance change in each well for the indicated number of hours. Data are expressed as cell index (CI) change relative to time in culture, reflecting measured changes in electrical impedance. Each value shown is an average of 6 wells. Where shown, statistical analysis was performed by calculation of standard deviation and P values were generated by a Student's two-tailed t-test.
(§3) T47D (American Type Culture Collection, Manassas, Va. (ATCC) cat. HTB-133) is an ER+ cell line derived from human mammary gland ductal carcinoma. Other ER+ cell lines used in studies reported herein include ZR-75 and HCC70. HCC1143 (ATCC cat. CRL-2321) is an ER− cell line also derived from human mammary gland ductal carcinoma.
(§4) Following the 8 hour starvation phase, either Ang II (Sigma-Aldrich), 500 nM, or vehicle control was added to the cell culture. […] Ang II also stimulated proliferation of ER+ cell lines HCC70, by approximately 30%, and ZR-75, by approximately 35%, relative to vehicle control (data not shown).
(§5) A cell proliferation assay procedure was followed as described in Example 2. Following the 8 hour starvation phase, either Ang II (Sigma-Aldrich), 500 nM, with or without the AT1 receptor antagonist telmisartan, 1.25 μM or 5 μM, or vehicle control was added to the cell culture.
(§6) A cell proliferation assay procedure was followed as described in Example 2. Following the 8 hour starvation phase, either Ang II (Sigma-Aldrich), 500 nM, with or without the AT1 receptor antagonist candesartan, 5 μM, or vehicle control was added to the cell culture.
(§7) A cell proliferation assay procedure was followed as described in Example 2. Following the 8 hour starvation phase, either Ang II (Sigma-Aldrich), 500 nM, with or without the AT1 receptor antagonist irbesartan, 5 μM, or vehicle control was added to the cell culture.
A cell proliferation assay was conducted by a procedure substantially as described in Example 2, using the ER+ human breast cancer cell line T47D. Following an eight-hour serum starvation phase, test substance was added to the cell culture to provide each of the following treatments: […]

HCC1143 cells = test: Cell proliferation assay (RT-CES impedance), ER- cell line HCC1143; type: cell-based, human; details: for Effect on cell proliferation: HCC1143
Protocol: as §1, §2, §3, §4, §5, §6, §7

[4] = tested on: cells cultured from invasive ductal carcinomas; details: cited from earlier work
[5] = tested on: breast cancer epithelial cell line MCF-7; details: cited from earlier work
[6] = administered for 5 years; women having risk factors; cited from earlier work
HCC70 cells = test: Cell proliferation assay (RT-CES impedance), ER+ cell line HCC70; type: cell-based, human
Protocol: as §1
as §2, with “t-test. […]” for “t-test.”

ZR-75 cells = test: Cell proliferation assay (RT-CES impedance), ER+ cell line ZR-75; type: cell-based, human
Protocol: as §1
as §2, with “t-test. […]” for “t-test.”

HCC1395 cells = test: Cell proliferation assay (RT-CES impedance), cell line HCC1395; type: cell-based, human
Protocol: as §1
as §2, with “t-test. […]” for “t-test.”

HCC1954 cells = test: Cell proliferation assay (RT-CES impedance), cell line HCC1954; type: cell-based, human
Protocol: as §1
as §2, with “t-test. […]” for “t-test.”

HCC1937 cells = test: Cell proliferation assay (RT-CES impedance), cell line HCC1937; type: cell-based, human
Protocol: as §1
as §2, with “t-test. […]” for “t-test.”

HCC38 cells = test: Cell proliferation assay (RT-CES impedance), cell line HCC38; type: cell-based, human
Protocol: as §1
as §2, with “t-test. […]” for “t-test.”

T47D cell line = details: cited from earlier work
[7] = Ang II 500 nM with AT1 receptor antagonist 5 μM
[8] = Ang II 500 nM with AT1 receptor antagonist 5 μM, data not shown
[9] = Ang II 500 nM with telmisartan 1.25 μM or 5 μM

With `C[C@H](CS)C(=O)N1CCC[C@H]1C(=O)O` [Captopril] as the compound, how does the ER protein concentration (ER) read?
Its ER protein concentration is “reduced”.

What about the PR protein concentration (PR) of the same compound?
The PR protein concentration was “increased”.

What about the “[3H]thymidine incorporation (an index of cell proliferation)” value (T47D cells [1]) of the same compound?
Its value is “inhibited”.

With `CCOc1nc2cccc(C(=O)OC(C)OC(=O)OC3CCCCC3)c2n1Cc1ccc(-c2ccccc2-c2nnn[nH]2)cc1` (centres unmarked) [candesartan cilexetil] as the compound, how does the “Growth in tumor volume” value [2] read?
Its value is “reduced in a dose-dependent fashion”.

For `CCOc1nc2cccc(C(=O)O)c2n1Cc1ccc(-c2ccccc2-c2nnn[nH]2)cc1` [candesartan, 2-ethoxy-1-[4-[2-(1H-tetrazol-5-yl)phenyl]benzyl]-7-benzimidazole-carboxylic acid], which “Effect on Ang II-induced growth” value (T47D cells [3]; [7]) is on record?
Its value is “significantly inhibited”.

What about the “Effect on cell proliferation” value (HCC1143 cells; [8]) of the same compound?
The value was “No effects”.

For `CCCCC1=NC2(CCCC2)C(=O)N1Cc1ccc(-c2ccccc2-c2nnn[nH]2)cc1` [irbesartan, 2-n-butyl-4-spirocyclopentane-1-[(2′-(tetrazol-5-yl)bipheny-4-yl)methyl]-2-imidazolin-5-one], which “Effect on Ang II-induced growth” value (T47D cells [3]; [7]) is on record?
The value was “significantly inhibited”.

And the “Effect on Ang II-induced cell proliferation” value (T47D cells [3]; irbesartan 5 μM + Ang II 500 nM)?
The value was “reversed the Ang II effect”.

And the “Effect on cell proliferation” value (HCC1143 cells; [8])?
Its value is “No effects”.

What about the “Growth in tumor volume” value [2] of the same compound?
Its value is “the lowest dose tested (30 mg/kg) appeared to give the greatest effect”.

For `NCCCC[C@H](N[C@@H](CCc1ccccc1)C(=O)O)C(=O)N1CCC[C@H]1C(=O)O` [lisinopril], which ER protein concentration (ER) is on record?
The ER protein concentration was “No such effects”.

What about the PR protein concentration (PR) of the same compound?
Its PR protein concentration is “No such effects”.

And the “[3H]thymidine incorporation (an index of cell proliferation)” value (T47D cells [1])?
The value was “No such effects”.

For `CCCCc1nc(Cl)c(CO)n1Cc1ccc(-c2ccccc2-c2nnn[nH]2)cc1` [losartan, 2-n-butyl-4-chloro-5-hydroxymethyl-1-[[2′-(1H-tetrazol-5-yl)biphenyl-4-yl]methyl]imidazole], which “Effect on Ang II-stimulated proliferation” value [4] is on record?
The value was “blocked”.

And the “Effect on Ang II proliferative effect” value [5]?
Its value is “blocked”.

What does the source list for `CC/C(=C(\c1ccccc1)c1ccc(OCCN(C)C)cc1)c1ccccc1` [tamoxifen]?
Effect on Ang II-induced cell proliferation (T47D cells [3]; tamoxifen 7.5 μM + Ang II 500 nM): reduced cell proliferation to a level lower than that of vehicle control; Growth in tumor volume [2]: reduced in a dose-dependent fashion; Reduction of incidence of invasive breast cancer [6]: ~50%

Which “Effect on Ang II-induced growth” value (T47D cells [3]; [9]) does the source give for `CCCc1nc2c(C)cc(-c3nc4ccccc4n3C)cc2n1Cc1ccc(-c2ccccc2C(=O)O)cc1` [telmisartan, 4′-[[4-methyl-6-(1-methyl-2-benzimidazolyl)-2-propyl-1-benzimidazol-yl]methyl]-2-biphenylcarboxylic acid] here?
The value was “significantly inhibited”.

What about the “Effect on cell proliferation” value (HCC1143 cells; [9]) of the same compound?
Its value is “No effects”.

Which “Effect of Ang II on cell growth/proliferation” value (T47D cells [3]; T47D (ER+), Ang II 500 nM vs vehicle control, after 8 h serum starvation) does the source give for “Ang II: peptide angiotensin II, a major regulator of blood pressure and cardiovascular homeostasis (Sigma-Aldrich) (DRVYIHPF; Angiotensin-2; UniProt P01019 25-32, looked up)” here?
Its value is “significantly stimulated growth; also recorded: substantial increase in cell proliferation”.

What about the “Ang II proliferation response” value (T47D cells [3]; cell line T47D) of the same compound?
Its value is “positive”.

And the “Effect of Ang II on cell growth/proliferation” value (HCC1143 cells; HCC1143 (ER-), Ang II 500 nM vs vehicle control)?
The value was “No effects”.

And the “Ang II proliferation response” value (HCC1143 cells; cell line HCC1143)?
Its value is “negative”.

And the “Stimulation of proliferation relative to vehicle control” value (HCC70 cells; HCC70 (ER+), Ang II 500 nM, data not shown)?
Its value is “approximately 30%”.

What about the “Ang II proliferation response” value (HCC70 cells; cell line HCC70) of the same compound?
The value was “positive”.

What about the “Stimulation of proliferation relative to vehicle control” value (ZR-75 cells; ZR-75 (ER+), Ang II 500 nM, data not shown) of the same compound?
The value was “approximately 35%”.

And the “Ang II proliferation response” value (ZR-75 cells; cell line ZR-75)?
The value was “positive”.

And the “Ang II proliferation response” value (HCC1395 cells)?
The value was “negative”.

And the “Ang II proliferation response” value (HCC1954 cells)?
Its value is “negative”.

And the “Ang II proliferation response” value (HCC1937 cells)?
Its value is “negative”.

What about the “Ang II proliferation response” value (HCC38 cells) of the same compound?
Its value is “negative”.

What about the “Stimulation of cell growth by Ang II” value (T47D cell line) of the same compound?
The value was “significant stimulation of cell growth”.

What about the “Proliferation stimulated by Ang II” value ([4]; ER and PR positive) of the same compound?
Its value is “stimulated in a dose-dependent manner”.

What about the “Proliferative effect of Ang II” value [5] of the same compound?
The value was “dose-dependent proliferative effect”.
